This is an account of results in PubChem BioAssay (NCI).

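Briefly, cells in 96-well plates were exposed to five compound concentrations for 48 h, and endpoints were estimated by linear interpolation. At the GI50, growth is halved. Definition used: TGI = concentration required for complete inhibition of growth.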

Some test systems named below: DLD-1 colon; M19-MEL melanoma; LXFL 529 NSCLC; DMS 273 small cell lung; HOP-18 NSCLC; RXF-631 renal; P388/ADR leukemia; SN12K1 renal; XF 498 CNS; SNB-78 CNS; P388 leukemia.
Test in all cases: NCI tumour cell line growth inhibition, 48 h

For `CCCCCCCCC/C=C/C=C/C(=O)NCC(=O)NC1C(O)C(O)C(Nc2ncnc3nc[nH]c23)OC1C(O)CO` (stereo not drawn), the GI50 in the test on DLD-1 colon is 0.896 µM; in the test on LXFL 529 NSCLC it was 0.0467 µM. The TGI in the test with M19-MEL melanoma is 0.0253 µM.
With `Nc1ccccc1S(=O)(=O)c1ccccc1`, the TGI in the test on DLD-1 colon, with M19-MEL melanoma, in the test on DMS 273 small cell lung, in the test on HOP-18 NSCLC, with RXF-631 renal and in the test with LXFL 529 NSCLC was over 100 µM in each case.
Turning to `COc1cc2c(ccc3c4cc(OC)c(OC)cc4c[n+](C)c23)cc1O`, the TGI was over 75 µM in the test with P388/ADR leukemia; 14 µM in the test with SN12K1 renal; over 75 µM in the test on DLD-1 colon; 19.2 µM with XF 498 CNS; over 75 µM in the test on SNB-78 CNS; over 75 µM in the test with M19-MEL melanoma. Besides, the TGI was over 75 µM in the test with DMS 273 small cell lung, 5.21 µM in the test on P388 leukemia and over 75 µM in the test on HOP-18 NSCLC.
For the molecule `CNC(=O)OCc1c(CO)nc(SC)n1C`, the TGI in the test with P388/ADR leukemia, with SN12K1 renal, in the test with DLD-1 colon, in the test with XF 498 CNS, in the test on M19-MEL melanoma and in the test on DMS 273 small cell lung was over 100 µM throughout. For the same molecule, the TGI with P388 leukemia and in the test on HOP-18 NSCLC was over 100 µM each time.
With `O=c1cccccc1[O-].O=c1cccccc1[O-].[O]=[U+2]=[O]`, the GI50 in the test with XF 498 CNS is 25.7 µM; in the test on SNB-78 CNS, 28.7 µM; in the test with DMS 273 small cell lung, 22.6 µM; in the test with HOP-18 NSCLC, 41 µM; with LXFL 529 NSCLC, 28.6 µM. In addition, the TGI came out at 47.3 µM in the test on XF 498 CNS; 67.6 µM in the test with SNB-78 CNS; 58.3 µM in the test with DMS 273 small cell lung; 97 µM in the test on HOP-18 NSCLC; 82.6 µM with LXFL 529 NSCLC.
`O=C(OCN1C(=O)C2C3C=CC(C2C1=O)C1C2C(=O)N(COC(=O)C4CCCN4)C(=O)C2C31)C1CCCN1` (stereo not drawn): the TGI with DLD-1 colon is over 69.7 µM; with XF 498 CNS it was over 100 µM; with SNB-78 CNS, over 100 µM; in the test on M19-MEL melanoma, over 100 µM; with DMS 273 small cell lung, over 56.4 µM; with HOP-18 NSCLC, over 100 µM. Moreover, the TGI in the test on RXF-631 renal and with LXFL 529 NSCLC was over 100 µM in each case.
For `[N-]=[N+]=CC(=O)c1ccccc1C#CCCc1ccccc1`, the TGI is over 100 µM with DLD-1 colon, 41.3 µM in the test with XF 498 CNS, 73.7 µM in the test on DMS 273 small cell lung and over 100 µM in the test on HOP-18 NSCLC.
